Entries after “also recorded” stand apart in the source; their conditions may differ.
Key:
[1] = Bioavailability of ABA in mice (serum tested by luciferase activation); assay type: in vivo, mouse
Description: Mice were housed in the Stanford University Research Animal Facility in accordance with federal and institutional guidelines. Mice aged 6 to 8 weeks and weighing about 30 g were orally gavaged with 10 mg of ABA in EtOH/Tween 20/Cremophor (4:3:1; […] or just vehicle with syringes. Blood was collected from the tails of mice at the indicated time after gavage and left on ice for 20 min. After blood was coagulated, the samples were spun down at 1500 g for 20 min and serum was collected for immediate use or snap-frozen and stored at −80° C.
FIG. 5A illustrates the bio-availability of ABA in mice by intraperitoneal injection. With 100 mg ABA/kg mouse body weight, ABA is rapidly available in 30 minutes and still remains in the system after 4 hours. ABA was intraperitoneally injected to mice and serum was collected at indicated time. ABA containing serum was then added as 10% (v/v) of culture media to the CHO cell culture for 24 hours and cells were assayed for luciferase activity. The CHO cells were pre-transfected with the activation and reporter DNA constructs for 24 hours before adding serum. […] With 340 mg ABA/kg mouse body weight, ABA is rapidly available in 1 hour, remains in the system after 8 hours and returns to background level after 24 hours. ABA was orally administrated by gavage to mice and serum was collected at indicated time. ABA containing serum was then added as 10% (v/v) of culture media to the CHO cell culture for 24 hours and cells were assayed for luciferase activity. The CHO cells were pre-transfected with the activation and reporter DNA constructs for 24 hours before adding serum.
In plants, ABA had been reported to be unstable due to active enzymatic degradation (Cutler, A. J. and Krochko, J. E. (1999) Formation and breakdown of ABA. Trends Plant Sci. 4, 472-478). To examine its stability in mammalian cells, ABA was incubated with CHO cells for up to 48 hours, after which the functional ABA concentration was assayed by the ability of the ABA-incubated cell culture medium to induce luciferase production in cells expressing VP16-PYLcs and wild-type Gal4 DBD-ABIcs. […] For potential therapeutic application in humans, the stability of ABA in the serum and its bioavailability in mice was examined (FIG. 16B). The activity of residual ABA in the serum was measured by its ability to induce the transcriptional activation of the luciferase reporter in cells expressing the ABA-activator cassette. The stability of ABA in isolated serum was tested by incubating ABA with fresh human serum or heat-inactivated fetal bovine serum (FBS) for up to 48 hours and then applying the serum as the ABA source to activate luciferase. […] Using this assay, the bioavailability in mice was evaluated. When ABA was injected intraperitoneally, it entered circulation rapidly, and activity was detectable within 30 min (FIG. 33).

[2] = rat; cited from earlier work
[3] = intraperitoneal injection, 100 mg ABA/kg

## CC1=CC(=O)CC(C)(C)C1(O)/C=C/C(C)=C/C(=O)O (stereo not drawn) [ABA, abscisic acid]
[1]
  oral availability: orally bioavailable; also recorded: orally available
[1]; injected intraperitoneally
  time to detectable activity in circulation: ≤ 30 min
[1]; [3]
  time ABA still remains in the system: ≥ 4 h
  time at which ABA is available in serum: 30 min
[1]; mouse, serum, po, 340 mg/kg, administered orally
  half-life: ~4 h
[1]; oral gavage, 340 mg ABA/kg
  time ABA remains in the system: ≥ 8 h
  time at which ABA is available in serum: 60 min
  time of return to background level: 24 h
[2]
  acute oral median lethal dose (LD50): > 5000 mg/kg

— patent publication US20130158098A1, “Alkenyl Substituted Cycloaliphatic Compounds as Chemical Inducers of Proximity” (priority 2010, published 2013)
